The target of experiment [1] is T1, KOR (Cavia porcellus, UniProt P41144).
T1 construct: from tissue; host or cells: guinea pig cerebellum preparation
Briefly: Opioid receptor competitive binding assay, KOR (3H-U-69,593). Set-up: species or system guinea pig. The settings on record: for Ki KOR/Ki MOR: Table 12, selectivity for MOR versus KOR. The procedure: (§1) For selected compounds, Ki for MOR, DOR, and KOR were determined according to the following procedure: Recombinant hMOR-1 membrane preps from stably transfected CHO cells and recombinant hDOR-1 membrane preps from stably transfected HEK-293 cells were purchased from Amersham Biosciences. Guinea pig cerebellum preparations were used for KOR assays.
(§2) Each microassay from an assay plate was filtered through an individual well of a Packard GF/B 96-well filter plate (glass fiber filter) to collect the membranes. Each well was washed twice with 200 μL of ice cold wash buffer (50 mM Tris, pH 7.4). The filter plate was allowed to dry overnight, the back was sealed, and Packard Bioscience Microscint PS scintillation fluid (75 μL) was added to each well, which was then counted for ^3H for 2 minutes using a Packard Bioscience TopCount scintillation counter plate reader.
(§3) Each compound was assayed at 8 concentrations, using half-log serial dilutions. Each concentration was tested in triplicate, and the ^3H cpm were averaged.
(§4) This triplicate experiment was repeated three times for the MOR and twice for the DOR and the KOR.

Experiment [2] deals with T2, hMOR-1 (Homo sapiens, UniProt P35372).
T2 construct: purchased Amersham Biosciences; host or cells: stably transfected CHO cells (membrane preparation)
In words: Opioid receptor competitive binding assay, MOR (3H-DAMGO). The settings on record: Ki MOR, 3H-DAMGO, hMOR-1 stably transfected into CHO cells. The procedure:
as §1, §2, §3
(§5) This concentration was determined experimentally by scintillation counting an aliquot of the radioligand stock solution used in the assay.
(§6) Kd=the binding constant for the radioligand.
as §4

Experiment [3] deals with T2, hMOR-1. In words: MOR GTP-γ-S assay (MOR activation). Format: biochemical. The settings on record: CHO membranes with hMOR-1; for % GTP-γ-S bound: Table 16, compound 10 μM, percentage of DAMGO induced GTP-γ-35S specific binding; for % GTP-γ-35S bound: Table 15, percentage of DAMGO induced GTP-g-35S specific binding. The procedure: MOR GTP-γ-S assay was run in the same 200 μL, 96 well format as the binding assay. Each microassay contained experimental compound, 0.04 nM GTP-γ-^35S, 9 μM GDP, and about 0.02 nM MOR (from stably transfected CHO cells), in assay buffer (50 mM Tris-HCl, 3 mM MgCl2, 0.2 mM EGTA, 100 mM NaCl, pH 7.4). The assays were incubated for two to three hours at room temperature, then filtered onto a filter plate. The plate was dried; scintillation fluid was added, and the wells were counted for ^35S. Blank assays were run to determine non-specific binding. […] The results were averaged; the non-specific counts were subtracted, and the resulting value was expressed as a percent of the value obtained for DAMGO. The error reported is two standard deviations from the mean of the quadruplicate experiment. The values were compared using one way Anova with Tukey's post-hoc analysis.

Experiment [4] deals with T3, hDOR-1 (Homo sapiens, UniProt P41143).
T3 construct: purchased Amersham Biosciences; host or cells: stably transfected HEK-293 cells (membrane preparation)
Briefly: Opioid receptor competitive binding assay, DOR. To be noted: for Ki DOR/Ki MOR: Table 12, selectivity for MOR versus DOR (3H-DPDPE, hDOR-1). The procedure:
as §1, §2, §3, §5, §6, §4

Setting [5] is: Ki KOR, Table 9, 3H-U-69,593, guinea pig cerebellum preps, errors two standard deviations.
[6] abbreviates: Table 3, errors 95% confidence interval.
The mark [7] stands for this setting: Ki DOR, Table 6, footnote:, hDOR-1 stably transfected into HEK-293 cells, errors two standard deviations.
Where [8] appears, read: Table 4, errors 95% confidence interval.

The values below come from US7223888B2, “Mu opioid receptor ligands: methods of use and synthesis” (President and Fellows of Harvard College, priority 2002, dated 2007).

Read-outs that look alike come from different tables or passages of the source.

With `NC(=O)C(Cc1ccccc1)NC(=O)C(Cc1ccccc1)C(O)/C=C/C(O)CC(N)Cc1ccc(O)cc1` (single isomer, unassigned) [(R, R, S, S)-43, 7-(1-Carbamoyl-2-phenyl-ethylcarbamoyl)-3,6-dihydroxy-1-(4-hydroxy-benzyl)-8-phenyl-oct-4-enyl-ammonium], the Ki in experiment [1] (read-out: Ki KOR) was 880 ± 550 nM; in experiment [2] (Table 5), 38 ± 13 nM; in experiment [4] (read-out: Ki DOR), 1200 ± 100 nM. Besides, in experiment [3], the “% GTP-γ-S bound” value was 30 ± 6%.
In the same order, the values of `NC(=O)C(Cc1ccccc1)NC(=O)C(Cc1ccccc1)C(O)/C=C/C(O)CC(N)Cc1ccc(O)cc1` (single isomer, unassigned) [(R, S, R, R)-43, 7-(1-Carbamoyl-2-phenyl-ethylcarbamoyl)-3,6-dihydroxy-1-(4-hydroxy-benzyl)-8-phenyl-oct-4-enyl-ammonium] are 270 ± 30 nM, 20 ± 3 nM, 2500 ± 300 nM and 68 ± 10%.
For the compound `NC(=O)C(Cc1ccccc1)NC(=O)C(Cc1ccccc1)C(O)/C=C/C(O)CC(N)Cc1ccc(O)cc1` (single isomer, unassigned) [(S, R, R, S)-43, 7-(1-Carbamoyl-2-phenyl-ethylcarbamoyl)-3,6-dihydroxy-1-(4-hydroxy-benzyl)-8-phenyl-oct-4-enyl-ammonium], the Ki in experiment [1] (read-out: Ki KOR) stood at 1200 ± 600 nM; in experiment [2] (Table 5) it was 28 ± 6 nM; in experiment [4] (read-out: Ki DOR), 2500 ± 3000 nM. Besides, the “% GTP-γ-S bound” value in experiment [3] is given as 48 ± 8%.
With `NC(=O)C(Cc1ccccc1)NC(=O)C(Cc1ccccc1)C(O)/C=C/C(O)CC(N)Cc1ccc(O)cc1` (single isomer, unassigned) [(S, R, S, R)-43, 7-(1-Carbamoyl-2-phenyl-ethylcarbamoyl)-3,6-dihydroxy-1-(4-hydroxy-benzyl)-8-phenyl-oct-4-enyl-ammonium], the Ki in experiment [1] (read-out: Ki KOR) turned out to be 290 ± 100 nM; in experiment [2] (Table 5), 32 ± 6 nM; in experiment [4] (read-out: Ki DOR) it was 740 ± 40 nM. The “% GTP-γ-S bound” value in experiment [3] came out at 37 ± 7%.
In the same order, the values of `NC(=O)C(Cc1ccccc1)NC(=O)C(Cc1ccccc1)C(O)/C=C/C(O)CC(N)Cc1ccc(O)cc1` (single isomer, unassigned) [(S, R, S, S)-43, 7-(1-Carbamoyl-2-phenyl-ethylcarbamoyl)-3,6-dihydroxy-1-(4-hydroxy-benzyl)-8-phenyl-oct-4-enyl-ammonium] are 3100 ± 2600 nM, 42 ± 5 nM, 2500 ± 300 nM and 57 ± 12%.
For the compound `NC(=O)C(Cc1ccccc1)NC(=O)C(Cc1ccccc1)C(O)/C=C/C(O)CC(N)Cc1ccc(O)cc1` (single isomer, unassigned) [(S, S, R, S)-43, 7-(1-Carbamoyl-2-phenyl-ethylcarbamoyl)-3,6-dihydroxy-1-(4-hydroxy-benzyl)-8-phenyl-oct-4-enyl-ammonium], the Ki in experiment [1] (read-out: Ki KOR) stood at 450 ± 60 nM; in experiment [2] (Table 5) it was 14 ± 1 nM; in experiment [4] (read-out: Ki DOR), 1200 ± 100 nM. Also, the “% GTP-γ-S bound” value in experiment [3] was determined as 25 ± 5%.
As to `C=CC(O)C(Cc1ccccc1)NC(=O)C(Cc1ccccc1)C(O)/C=C/CC(O)C(N)Cc1ccc(O)cc1` (single isomer, unassigned) [(S,S,R,R)-12, (E)-8-Amino-2-benzyl-3,7-dihydroxy-9-(4-hydroxy-phenyl)-non-4-enoic acid (1-benzyl-2-hydroxy-but-3-enyl)-amide], the Ki in experiment [1] (setting [5]) is 770 ± 130 nM; in experiment [2] (setting [6]), 22 ± 4 nM; in experiment [4] (setting [7]), 620 ± 70 nM. In experiment [1], the “Ki KOR/Ki MOR” value was found to be 35. For the same compound, the “Ki DOR/Ki MOR” value in experiment [4] is 28.
In the case of `NC(=O)C(Cc1ccccc1)NC(=O)C(Cc1ccccc1)C(O)/C=C/CC(O)C(N)Cc1ccc(O)cc1` (single isomer, unassigned) [(S,S,R,S)-2, (E)-8-Amino-2-benzyl-3,7-dihydroxy-9-(4-hydroxy-phenyl)-non-4-enoic acid (1-carbamoyl-2-phenyl-ethyl)-amide], the results for the Ki in experiment [1] (setting [5]), in experiment [2] (setting [6]) and in experiment [4] (setting [7]) were 1300 ± 100 nM, 79 ± 23 nM and 6900 ± 1300 nM, respectively. The “Ki KOR/Ki MOR” value in experiment [1] is 16. The “Ki DOR/Ki MOR” value in experiment [4] is 86.
Turning to `NC(=O)C(Cc1ccccc1)NC(=O)C(Cc1ccccc1)C(O)/C=C/CC(O)C(N)Cc1ccc(O)cc1` (single isomer, unassigned) [(S,S,S,R)-2, (E)-8-Amino-2-benzyl-3,7-dihydroxy-9-(4-hydroxy-phenyl)-non-4-enoic acid (1-carbamoyl-2-phenyl-ethyl)-amide], the results for the Ki in experiment [1] (setting [5]), in experiment [2] (setting [6]) and in experiment [4] (setting [7]) were 1300 ± 500 nM, 8.8 ± 0.7 nM and 510 ± 10 nM, respectively. Also, the “Ki KOR/Ki MOR” value in experiment [1] came out at 150. Also, the “Ki DOR/Ki MOR” value in experiment [4] was 57.
`NC(=O)C(Cc1ccccc1)NC(=O)C(Cc1ccccc1)C(O)/C=C\CC(O)C(N)Cc1ccc(O)cc1` (single isomer, unassigned) [(S,S,S,R)-9, (Z)-8-Amino-2-benzyl-3,7-dihydroxy-9-(4-hydroxy-phenyl)-non-4-enoic acid (1-carbamoyl-2-phenyl-ethyl)-amide]: the Ki in experiment [1] (setting [5]) worked out at 6100 ± 3000 nM; in experiment [2] (setting [6]), 370 ± 150 nM; in experiment [4] (setting [7]), 2200 ± 100 nM. The “Ki KOR/Ki MOR” value in experiment [1] stood at 16. In experiment [4], the “Ki DOR/Ki MOR” value came out at 6.
For the compound `NC(Cc1ccc(O)cc1)C(O)C/C=C/C(O)C(Cc1ccccc1)C(=O)NCCc1ccccc1` (single isomer, unassigned) [(S,S,S,R)-10, (E)-8-Amino-2-benzyl-3,7-dihydroxy-9-(4-hydroxy-phenyl)-non-4-enoic acid phenethyl-amide], the Ki turned out to be 1800 ± 300 nM in experiment [1] (setting [5]), 21 ± 1 nM in experiment [2] (setting [6]) and 3600 ± 100 nM in experiment [4] (setting [7]). The “Ki KOR/Ki MOR” value in experiment [1] stood at 86. Also, in experiment [4], the “Ki DOR/Ki MOR” value is recorded as 170.
For the compound `NC(Cc1ccc(O)cc1)C(O)C/C=C/C(O)C(Cc1ccccc1)C(=O)NC(CO)Cc1ccccc1` (single isomer, unassigned) [(S,S,S,R)-11, (E)-8-Amino-2-benzyl-3,7-dihydroxy-9-(4-hydroxy-phenyl)-non-4-enoic acid (1-hydroxymethyl-2-phenyl-ethyl)-amide], the Ki is 6000 ± 700 nM in experiment [1] (setting [5]), 10 ± 2 nM in experiment [2] (setting [6]) and 1100 ± 100 nM in experiment [4] (setting [7]). In addition, the “Ki KOR/Ki MOR” value in experiment [1] was 600. Also, the “Ki DOR/Ki MOR” value in experiment [4] was 110.
In the same order, the values of `C=CC(O)C(Cc1ccccc1)NC(=O)C(Cc1ccccc1)C(O)/C=C/CC(O)C(N)Cc1ccc(O)cc1` (single isomer, unassigned) [(S,S,S,R)-12, (E)-8-Amino-2-benzyl-3,7-dihydroxy-9-(4-hydroxy-phenyl)-non-4-enoic acid (1-benzyl-2-hydroxy-but-3-enyl)-amide] are 1050 ± 10 nM, 20 ± 1 nM, 680 ± 40 nM, 53 and 34.
With `NC(=O)C(Cc1ccccc1)OC(=O)C(Cc1ccccc1)C(O)/C=C/CC(O)C(N)Cc1ccc(O)cc1` [(S,S,S,R)-13, (E)-8-Amino-2-benzyl-3,7-dihydroxy-9-(4-hydroxy-phenyl)-non-4-enoic acid1-carbamoyl-2-phenyl-ethyl ester], the values for the inhibitory constant (Ki) in experiment [1] (read-out: Ki KOR), in experiment [2] (setting [6]) and in experiment [4] (read-out: Ki DOR) were 6000 ± 2100 nM, 37 ± 8 nM and 910 ± 250 nM, respectively.
In the case of `Cc1cc(O)cc(C)c1CC(N)C(O)C/C=C/C(O)C(Cc1ccccc1)C(=O)NC(CN)Cc1ccccc1` [(S,S,S,R)-28], the Ki in experiment [2] (setting [8]) came to 0.45 ± 0.05 nM; in experiment [4] (Ki DOR, Table 7, 3H-diprenorphine, hDOR-1 stably transfected into HEK-293 cells, errors two standard deviations), 21 ± 4 nM. In experiment [3] (compound 10 mM (footnote)), the “% GTP-γ-35S bound” value was found to be 47 ± 5%.
For the compound `NC(=O)[C@H](Cc1ccccc1)NC(=O)[C@H](Cc1ccccc1)NC(=O)[C@H]1CCCN1C(=O)[C@@H](N)Cc1ccc(O)cc1` [Compound 1, Endomorphin-2, reference compound], the Ki in experiment [2] (setting [6]) came out at 1.2 ± 0.1 nM; in experiment [2] (setting [8]) it was 0.69 ± 0.18 nM; in experiment [2] (Table 5), 1 ± 0.1 nM. For the same compound, in experiment [3] (compound 10 μM (footnote)), the “% GTP-γ-35S bound” value is recorded as 100 ± 6%. In experiment [3], the “% GTP-γ-S bound” value came to 100 ± 6%.
